Assay results as given in patent US9745283B2, “Uracil derivatives as AXL and c-MET kinase inhibitors” (priority 2011, dated 2017).

Columns and labels:
[1] = target: recombinant human baculovirus-expressed AXL (Homo sapiens (Human), UniProt P30530); experiment: AXL Kinase Assay (HTRF KinEASE); format: biochemical; details: average of two or more determinations
[2] = target: recombinant human baculovirus-expressed cMET (Homo sapiens (Human), UniProt P08581); experiment: C-MET Kinase Assay (HTRF KinEASE); format: biochemical; details: average of two or more determinations; read-out: c-MET IC50
How it was run: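 HTRF KinEASE format with recombinant human baculovirus-expressed cMET at 8 ng/mL, biotinylated peptide at 0.1 μM and ATP at 0.02 μM. IC50 came from percent control activity versus log concentration, fitted by nonlinear regression to a variable-slope sigmoidal equation with bottom fixed at 0 and top at 100.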

| Structure (SMILES) | IC50 [1] [nM] | IC50 [2] [nM] |
| --- | --- | --- |
| COc1cc2nccc(Oc3ccc(NC(=O)c4nn(C(C)C)c(=O)n(-c5ccc(F)cc5)c4=O)nc3)c2cc1OC [Example 110, 4-(4-Fluoro-phenyl)-2-isopropyl-3,5-dioxo-2,3,4,5-tetrahydro-[1,2,4]triazine-6-carboxylic acid [5-(6,7-dimethoxy-quinolin-4-yloxy)-pyridin-2-yl]-amide] | < 10 | 10 to 100 |
| COc1ccc2c(Oc3ccc(NC(=O)c4nn(C(C)C)c(=O)n(-c5ccc(F)cc5)c4=O)cc3F)ccnc2c1 [Example 111, 4-(4-Fluorophenyl)-2-isopropyl-3,5-dioxo-2,3,4,5-tetrahydro-[1,2,4]triazine-6-carboxylic acid [3-fluoro-4-(7-methoxyquinolin-4-yloxy)-phenyl]-amide] | < 10 | 10 to 100 |
| COc1cc2nccc(Oc3ccc(NC(=O)c4nn(CC(C)=O)c(=O)n(-c5ccc(F)cc5)c4=O)cc3F)c2cc1OC [Example 112, 4-(4-Fluorophenyl)-3,5-dioxo-2-(2-oxo-propyl)-2,3,4,5-tetrahydro-[1,2,4]triazine-6-carboxylic acid [4-(6,7-dimethoxyquinolin-4-yloxy)-3-fluorophenyl]-amide] | < 10 | 10 to 100 |
| C#CCn1nc(C(=O)Nc2ccc(Oc3ccnc4cc(OC)c(OC)cc34)c(F)c2)c(=O)n(-c2ccc(F)cc2)c1=O [Example 113, 4-(4-Fluoro-phenyl)-3,5-dioxo-2-prop-2-ynyl-2,3,4,5-tetrahydro-[1,2,4]triazine-6-carboxylic acid [4-(6,7-dimethoxy-quinolin-4-yloxy)-3-fluoro-phenyl]-amide] | < 10 | < 10 |
| C#CCn1c(=O)c(C(=O)Nc2ccc(Oc3ccnc4cc(OC)c(OC)cc34)c(F)c2)nn(C)c1=O [Example 115, 2-Methyl-3,5-dioxo-4-prop-2-ynyl-2,3,4,5-tetrahydro-[1,2,4]triazine-6-carboxylic acid [4-(6,7-dimethoxy-uinolin-4-yloxy)-3-fluoro-phenyl]-amide] | < 10 | 10 to 100 |
| COc1cc2nccc(Oc3ccc(NC(=O)c4nn(C)c(=O)n(CC5CC5)c4=O)cc3F)c2cc1OC [Example 125, 4-Cyclopropylmethyl-2-methyl-3,5-dioxo-2,3,4,5-tetrahydro-[1,2,4]triazine-6-carboxylic acid [4-(6,7-dimethoxy-quinolin-4-yloxy)-3-fluoro-phenyl]-amide] | < 10 | 10 to 100 |
| COc1cc2nccc(Oc3ccc(NC(=O)c4nn(C)c(=O)n(CC5CCOCC5)c4=O)cc3F)c2cc1OC [Example 126, 2-Methyl-3,5-dioxo-4-(tetrahydro-pyran-4-ylmethyl)-2,3,4,5-tetrahydro-[1,2,4]triazine-6-carboxylic acid [4-(6,7-dimethoxy-quinolin-4-yloxy)-3-fluoro-phenyl]-amide] | < 10 | 101 to 1000 |
| COc1cc2nccc(Oc3ccc(NC(=O)c4nn(C)c(=O)n(CC(C)C)c4=O)cc3F)c2cc1OC [Example 127, 4-Isobutyl-2-methyl-3,5-dioxo-2,3,4,5-tetrahydro-[1,2,4]triazine-6-carboxylic acid [4-(6,7-dimethoxy-quinolin-4-yloxy)-3-fluoro-phenyl]-amide] | < 10 | 10 to 100 |
| COc1cc2nccc(Oc3ccc(NC(=O)c4nn(C)c(=O)n(CC5CCC5)c4=O)cc3F)c2cc1OC [Example 128, 4-Cyclobutylmethyl-2-methyl-3,5-dioxo-2,3,4,5-tetrahydro-[1,2,4]triazine-6-carboxylic acid [4-(6,7-dimethoxy-quinolin-4-yloxy)-3-fluoro-phenyl]-amide] | < 10 | 10 to 100 |
| COc1cc2nccc(Oc3ccc(NC(=O)c4nn(C)c(=O)n(CC(C)(C)C)c4=O)cc3F)c2cc1OC [Example 129, 4-(2,2-Dimethylpropyl)-2-methyl-3,5-dioxo-2,3,4,5-tetrahydro-[1,2,4]triazine-6-carboxylic acid [4-(6,7-dimethoxyquinolin-4-yloxy)-3-fluorophenyl]-amide] | < 10 | 10 to 100 |
